According to paper PMC9788418, “Design, Synthesis and Biological Evaluation of Syn and Anti-like Double Warhead Quinolinones Bearing Dihydroxy Naphthalene Moiety as Epidermal Growth Factor Receptor Inhibitors with Potential Apoptotic Antiproliferative Action” (Molecules, 2022):
Values joined by “and” are separate entries in the source; they are usually repeats but may differ in a detail not shown here. Identical values can stand only once.

How the values were obtained:
EGFR = EGFR (Homo sapiens, UniProt P00533); assay: EGFR inhibitory assay (EGFR-TK, DELFIA/time-resolved fluorometry)
Description: EGFR-TK assay was performed to evaluate the inhibitory potency of novel compounds against
EGFR. Baculoviral expression vectors including pBlueBacHis2B and pFASTBacHTc were used
5ʹ upstream to the EGFR sequence comprised a sequence that encoded (His)6. Sf-9 cells were infected for 72h for protein expression. The pellets of Sf-9 cells were solubilized in a buffer containing sodium vanadate (100 µM), aprotinin (10 µg/mL), triton (1%), HEPES buffer (50mM), ammonium molybdate (10 µM), benzamidine HCl (16 µg/mL), NaCl (10 mM), leupeptin (10 µg/mL) and pepstatin (10 µg/mL) at 0°C for 20 min at pH 7.4, followed by centrifugation for 20 min.
To eliminate the non-specifically bound material, a Ni-NTA super flow packed column was used to pass through and wash the crude extract supernatant first with 10 mM and then with 100 mM imidazole. Histidine-linked proteins were first eluted with 250 and then with 500 mM imidazole after (1 picture or pasted object on this page, not shown here)
dialysis against NaCl (50 mM), HEPES (20 mM), glycerol (10%) and 1 µg/mL each of aprotinin, leupeptin and pepstatin for 120 min. The purification was performed either at 4 °C or on ice. To
record autophosphorylation level, EGFR kinase assay was carried out based on DELFIA/Time-
Resolved Fluorometry. The compounds were first dissolved in DMSO absolute, after dilution to
Each compound (10 µL) was incubated
with recombinant enzyme (10 µL, 5 ng for EGFR, 1:80 dilution in 100 mM HEPES) for 10 min at
25 °C, after the addition of 5X buffer (10 µL, containing 2 mM MnCl2, 100 µM Na3VO4, 20 mM HEPES and 1 mM DTT) and ATP-MgCl2 (20 µL, containing 0.1 mM ATP and 50 mM MgCl2) and
incubation for 1h. The negative and positive controls were included in each plate by the incubation
of enzyme either with or without ATP-MgCl2. The liquid was removed after incubation and the plates
were washed thrice using wash buffer. Europium-tagged antiphosphotyrosine antibody (75 µL, 400
ng) was added to each well followed by incubation of 1h and then washing of the plates using buffer.
The enhancement solution was added to each well and the signal was recorded at excitation and
The autophosphorylation percentage inhibition by compounds was calculated using the following equation:

[1] = test system: four tested cancer cell lines (A-549, MCF-7, Panc-1, HT-29); assay: Antiproliferative assay, average over the four cell lines; assay type: cell-based, human; details: for GI50: Homo sapiens, mean of the four cancer cell lines
Description: The newly synthesized compounds were tested for antiproliferative activity against four different types of cancer cells: A-549 (epithelial cancer cell line), MCF-7 (breast cancer cell line), Panc-1 (pancreas cancer cell line), and HT-29 (colon cancer cell line).
After 24 h, medium was removed from the plates and the compounds in (in 0.1% DMSO) were added (in 200 μL medium to yield a final concentration of 0.1% v/v) to the wells of plates. A single compound was designated with four wells followed by incubation of plates for 96h at 37°C. After incubation, medium was removed completely from the plates followed by addition of MTT (0.4 mg/mL in medium) to each well and subsequent incubation of plates for 3h. MTT (along with the medium) was removed and DMSO (150μL) was added to each well of the culture plates, followed by vortexing and subsequent measurement of absorbance (at 540 nm) using microplate reader. The data are shown as percentage inhibition of proliferation in comparison with controls containing 0.1% 4.2.1.2. Assay for antiproliferative effect
To explore the antiproliferative potential of compounds MTT assay was performed according to previously reported procedure using different cell lines to explore the antiproliferative potential of compounds propidium iodide fluorescence assay was performed using different cell lines. To calculate the total nuclear DNA, a fluorescent dye (propidium iodide, PI) is used which can attach to the DNA, thus offering a quick and precise technique. PI cannot pass through the cell membrane and its signal intensity can be considered as directly proportional to quantity of cellular DNA. Cells whose cell membranes are damaged or have changed permeability are counted as dead ones. The assay was performed by seeding the cells of different cell lines at a density of 3000-7500 cells/well (in 200µl medium) in culture plates followed by incubation for 24h at 37 °C in humidified 5% CO2/95% air atmospheric conditions. The medium was removed; the compounds were added to the plates at 10 µM concentrations (in 0.1% DMSO) in triplicates, followed by incubation for 48 h. DMSO (0.1%) was used as control. After incubation, medium was removed followed by the addition of PI (25 µl, 50µg/mL in water/medium) to each well of the plates. At -80 °C, the plates were allowed to freeze for 24 h, followed by thawing at 25 °C. A fluorometer (Polar-Star BMG Tech) was used to record the readings at excitation and emission wavelengths of 530 and 620 nm for each well. The percentage cytotoxicity of compounds was calculated using the following formula:
Where ATC= Absorbance of treated cells and AC= Absorbance of control. Erlotinib was used as positive control in the assay.

caspase-8 = assay: Caspase-8 activation assay; assay type: cell-based, human; details: for Caspase-8 Fold Change: vs control cells
[2] = test system: Panc-1 (pancreas cancer cell line); assay: Antiproliferative assay; assay type: cell-based, human; details: Homo sapiens, PANC-1; read-out: Antiproliferative Activity IC50 ± SEM, Panc-1
Description: 4.2. Biological evaluation
4.2.1. Cytotoxic activity using MTT Assay and evaluation of IC50 […]
cells were seeded at a density of 10^4 cells mL-1 in flat-bottomed culture plates containing 96 wells each. After 24 h, medium was removed from the plates and the compounds in (in 0.1% DMSO) were added (in 200 μL medium to yield a final concentration of 0.1% v/v) to the wells of plates. A single […]
incubation, medium was removed completely from the plates followed by addition of MTT (0.4 mg/mL in medium) to each well and subsequent incubation of plates for 3h. MTT (along with the medium) was removed and DMSO (150μL) was added to each well of the culture plates, followed by vortexing and subsequent measurement of absorbance (at 540 nm) using microplate reader. The data […]
4.2.1.2. Assay for antiproliferative effect
To explore the antiproliferative potential of compounds MTT assay was performed according to previously reported procedure using different cell lines to explore the antiproliferative potential of compounds propidium iodide fluorescence assay was performed using different cell lines. To calculate the total nuclear DNA, a fluorescent dye (propidium iodide, PI) is used which can attach to the DNA, thus offering a quick and precise technique. PI cannot pass through the cell membrane and its signal intensity can be considered as directly proportional to quantity of cellular DNA. Cells whose cell membranes are damaged or have changed permeability are counted as dead ones. The assay was performed by seeding the cells of different cell lines at a density of 3000-7500 cells/well (in 200µl […]
atmospheric conditions. The medium was removed; the compounds were added to the plates at 10 µM concentrations (in 0.1% DMSO) in triplicates, followed by incubation for 48 h. DMSO (0.1%) was used as control. After incubation, medium was removed followed by the addition of PI (25 µl, 50µg/mL in water/medium) to each well of the plates. At -80 °C, the plates were allowed to freeze for 24 h, followed by thawing at 25 °C. A fluorometer (Polar-Star BMG Tech) was used to record the readings at excitation and emission wavelengths of 530 and 620 nm for each well. The percentage cytotoxicity of compounds was calculated using the following formula:
Where ATC= Absorbance of treated cells and AC= Absorbance of control. […]
positive control in the assay.

caspase-9 = assay: Caspase-9 level assay; assay type: cell-based, human; details: for Caspase-9 Fold Change: vs control cells
Description: The impact of compounds 4a and 4b on caspase-8 and caspase-9 was also assessed to clarify how compounds 4a and 4b induce apoptosis by activating the intrinsic or extrinsic route.

Chain of EGFR (P00533 669-1210): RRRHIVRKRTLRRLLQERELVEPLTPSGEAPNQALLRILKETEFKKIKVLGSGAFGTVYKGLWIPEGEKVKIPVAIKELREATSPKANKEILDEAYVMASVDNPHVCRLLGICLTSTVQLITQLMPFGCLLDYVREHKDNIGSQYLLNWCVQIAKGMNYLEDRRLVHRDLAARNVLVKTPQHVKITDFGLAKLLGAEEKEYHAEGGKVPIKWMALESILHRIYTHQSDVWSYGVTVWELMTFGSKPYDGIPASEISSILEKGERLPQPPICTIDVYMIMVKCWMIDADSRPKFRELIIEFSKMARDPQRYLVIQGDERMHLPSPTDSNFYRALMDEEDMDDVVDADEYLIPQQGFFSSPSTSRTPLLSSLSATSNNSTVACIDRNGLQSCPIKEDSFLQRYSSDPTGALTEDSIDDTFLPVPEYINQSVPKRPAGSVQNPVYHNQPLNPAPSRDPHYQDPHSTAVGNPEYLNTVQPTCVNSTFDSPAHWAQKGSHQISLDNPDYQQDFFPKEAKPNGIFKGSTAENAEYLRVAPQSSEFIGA

Row | SMILES | IC50 (EGFR) [µM] | GI50 [1] [µM] | Caspase-8 Conc (caspase-8) [ng/mL] | Caspase-8 Fold Change (caspase-8) | IC50 [2] [µM] | Caspase-9 Conc (caspase-9) [ng/mL] | Caspase-9 Fold Change (caspase-9) | fold less effective than erlotinib (EGFR IC50) (EGFR; relative to erlotinib) | fold more potent than 4c (GI50) ([1]; relative to 4c) [fold] | fold less potent than erlotinib (GI50) ([1]; relative to erlotinib) [fold]
1 | O=c1cc(-n2cc(COc3cccc4cccc(OCc5cn(-c6cc(=O)[nH]c7ccccc67)nn5)c34)nn2)c2ccccc2[nH]1 [Compound 4a, 4,4′-(((naphthalene-1,8-diylbis(oxy))bis(methylene))bis(1H-1,2,3-triazole-4,1-diyl))-bis-(quinolin-2(1H)-one)] | 0.064 ± 0.006 | 0.034 | 1.20 | 6 | 0.036 ± 0.003 | 17.80 | 19 and 18.75 |  |  | 
2 | Cc1ccc2[nH]c(=O)cc(-n3cc(COc4cccc5cccc(OCc6cn(-c7cc(=O)[nH]c8ccc(C)cc78)nn6)c45)nn3)c2c1 [Compound 4b, 4,4′-(((naphthalene-1,8-diylbis(oxy))bis(methylene))bis(1H-1,2,3-triazole-4,1-diyl))-bis(6-methylquinolin-2(1H)-one)] | 0.093 ± 0.009 | 0.045 | 0.80 | 4 | 0.046 ± 0.004 | 16.60 | 18 and 17.50 | roughly 1.3 fold | 1.8 | 1.4
